In patent US20060205677A1 (XenoPort, Inc., priority 2005, published 2006):

Columns and labels:
HT29 cells [1] = experiment: In vitro cytotoxicity (Alamar blue growth inhibition), HT29; type: cell-based, human; details: HT29, 48 h
Description: (§1) The effect of experimental compounds on cancer cell growth and viability was measured in a panel of human cancer cells grown in vitro. All cancer cell lines were obtained from the American […]. Cells were maintained in the following media: TUR, H69AR, Calu-6, ME180, and PC3 cells were grown in RPMI medium containing 4.5 g/L glucose, 10% FBS, 4 mM L-glutamine, and 1 mM sodium pyruvate); and HT29 cells were grown in DMEM with 4.5 g/L glucose, 10% FBS, and 6 mM L-glutamine. All cells were grown at 37° C. in 5% CO2 and passaged bi-weekly.
(§2) For cytoxicity studies, cells were seeded into 96-well clear-bottom microtiter plates at the following densities: TUR (7,500 cells/well), HT29 (5,000 cells/well), H69AR (10,000 cells/well), Calu-6 (15,000 cells/well), and ME180 (2,500 cells/well). Cells were maintained at 37° C. with 5% CO2 for 24 hours prior to addition of various experimental compounds. Each condition was measured in triplicate. For compounds dissolved in DMSO, the final DMSO concentration in each well and in the non-drug treated control cells was constant and below 1% in all studies. The number of viable cells was determined after 24, 48, and 72 hours using Alamar blue fluorescence. Briefly, Alamar blue (10 mM) was added to each well for 4 hours, and the number of viable cells estimated by measuring the fluorescence of reduced Alamar blue (530 nm excitation, 590 nm emission). To correct for background fluorescence, cells were treated with 100% DMSO to eliminate all viable cells. The effect of drug on cell growth was determined by calculating the fraction of live cells treated with drug compared to untreated cells: (F1drug treated−F1DMSO killed)/(F1untreated−F1DMSO killed).

H69AR cells = experiment: In vitro cytotoxicity (Alamar blue growth inhibition), H69AR; type: cell-based, human; details: 48 h
Description: as §1, §2

TUR cells = experiment: In vitro cytotoxicity (Alamar blue growth inhibition), TUR; type: cell-based, human; details: 48 h
Description: as §1, §2

PC3 cells = experiment: In vitro cytotoxicity (Alamar blue growth inhibition), PC3; type: cell-based, human; details: PC3, 48 h
Description: as §1, §2

ME180 cells = experiment: In vitro cytotoxicity (Alamar blue growth inhibition), ME180; type: cell-based, human; details: ME180, 48 h
Description: as §1, §2

Calu-6 cells = experiment: In vitro cytotoxicity (Alamar blue growth inhibition), Calu-6; type: cell-based, human; details: Calu-6, 48 h
Description: as §1, §2

PC3 (Prostate) xenograft = experiment: In vivo tumor growth inhibition, mouse xenograft, PC3; set-up: species or system nude athymic CD-1 mice; details: 80 mg/kg (2/week), IP
Description: (§3) Tumor xenograft studies were performed using nude athymic CD-1 mice (Charles River Laboratories). Human cancer cells (5×10^6 PC3, 5×10^6 HT29, 10^7 Calu-6, and 5×10^6 ME180) were implanted in the hind flank of nude mice. Tumor growth was measured using calipers and tumor volume calculated using the formula: (width^2×(length/2)). Tumor volume was measured 3 days per week. Animal weight was measured 3 days per week to assess compound toxicity.
Compounds were tested for in vivo tumor growth inhibition as follows. Animals bearing tumors 100-200 mg were sorted into groups (5-8 animals) with similar average tumor mass per group. Drug doses were administered by intraperitoneal (IP) injection (0.5 mL). Test compounds were dissolved in phosphate buffered saline (PBS) and concentration adjusted for animal weight. Actual drug concentrations in formulated doses were verified by quantitative nitrogen detection. Animals were dosed every 7 days for 21 days in most studies. In several studies, animals were dosed twice weekly (days 0, 4, 7, 10, 14, etc.). Tumor volume and animal weight were measured on days 0, 2, 4, 7, 9, 11, 14, 16, 18, 21, 23, 25, and 28. […] Tumor volume at the end of the study was calculated as a percentage of the tumor volume on day 0. […]

[2] = Determination of maximum tolerated dose (MTD); type: in vivo, nude mice; details: ratio of maximum tolerated dose to minimally effective dose
Description: To determine the maximum tolerated doses for compound (54) relative to clinically used platinum anticancer agents, nude mice were injected with increasing drug doses (0.5 mL, intraperitoneally) on days 0, 7, and 14. […] The therapeutic index of a given drug is defined as the ratio of the maximum tolerated dose to the minimally effective dose.

HT29 (Colon) xenograft = experiment: In vivo tumor growth inhibition, mouse xenograft, HT29; set-up: species or system nude athymic CD-1 mice; details: IP
Description: as §3
(§4) Compounds were tested for in vivo tumor growth inhibition as follows. Animals bearing tumors 100-200 mg were sorted into groups (5-8 animals) with similar average tumor mass per group. Drug doses were administered by intraperitoneal (IP) injection (0.5 mL). Test compounds were dissolved in phosphate buffered saline (PBS) and concentration adjusted for animal weight. Actual drug concentrations in formulated doses were verified by quantitative nitrogen detection. Animals were dosed every 7 days for 21 days in most studies. In several studies, animals were dosed twice weekly (days 0, 4, 7, 10, 14, etc.). Tumor volume and animal weight were measured on days 0, 2, 4, 7, 9, 11, 14, 16, 18, 21, 23, 25, and 28. At the end of the study, animal blood was removed for analysis of liver and kidney function (BUN, creatine, AST and ALT; analytical measurements performed by Quality Clinical Labs). Tumor volume at the end of the study was calculated as a percentage of the tumor volume on day 0. The percent tumor growth inhibition was obtained from the ratio of the percentage tumor volume increase in drug treated animals to the percentage tumor volume increase in saline treated animals.

Calu-6 (Lung) xenograft = experiment: In vivo tumor growth inhibition, mouse xenograft, Calu-6; set-up: species or system nude athymic CD-1 mice; details: 100 mg/kg, IP
Description: as §3, §4

[3] = system: ME180 (Cervical) xenograft; experiment: In vivo tumor growth inhibition, mouse xenograft, ME180; set-up: species or system nude athymic CD-1 mice; details: 100 mg/kg, IP
Description: as §3, §4

HT29 cells [4] = experiment: Effect of sugar transport inhibitor (phloridzen) on in vitro cytotoxicity; type: cell-based, human; details: 48 hours
Description: as §1, §2

| Compound | GI50 (HT29 cells [1]) [µM] | GI50 (H69AR cells) [µM] | GI50 (TUR cells) [µM] | GI50 (PC3 cells) [µM] | GI50 (ME180 cells) [µM] | GI50 (Calu-6 cells) [µM] | also measured |
| --- | --- | --- | --- | --- | --- | --- | --- |
| O=C1[O][Pt]2([NH]C3CCCCC3[NH]2)[O]C(=O)C1CCC1OC(CO)C(O)C(O)C1O (stereo not shown) [(93)] | 178 | 78 | 20 | 69 | 7 | 139 |  |
| O=C1[O][Pt]2([NH]C3CCCCC3[NH]2)[O]C(=O)C1CCCC1OC(CO)C(O)C(O)C1O [(83), [1R, 2R-Cyclohexanediamine-N,N′][{3-(α,β-D-Mannopyranos-1-yl)propyl}propanedioato(2-)-O,O′]Platinum (II)] | 117 | 163 | 41 | 100 | 10 | 155 |  |
| O=C(CCCC1C(=O)[O][Pt]2([NH]C3CCCCC3[NH]2)[O]C1=O)NC1C(O)OC(CO)C(O)C1O [(79), [1R,2R-Cyclohexanediamine-N,N′][{3-(α,β-D-Glucopyranos-2-yl-amido)propyl}propanedioato(2-)-O,O′]Platinum (II)] | 124 | 55 | 15 | 67 |  |  | Percent Tumor Growth Inhibition PC3 (Prostate) (PC3 (Prostate) xenograft): 48% |
| O=C1[O][Pt]2([NH][C@@H]3CCCC[C@H]3[NH]2)[O]C1=O [Oxaliplatin, oxaliplatin, reference compound] | 133 | 60 | 42 | 113 | 28 | 52 | Therapeutic Index MTD/Min Eff [2]: 2.0; Percent Tumor Growth Inhibition HT29 (Colon) (HT29 (Colon) xenograft; 5 mg/kg): 40% |
| N.N.O=C([O-])C1(C(=O)[O-])CCC1.[Pt+2] [Carboplatin, reference compound] | 515 | 94 | 123 | 290 | 64 | 712 | Percent Tumor Growth Inhibition Calu-6 (Lung) (Calu-6 (Lung) xenograft): 56%; Percent Tumor Growth Inhibition ME180 (Cervical) [3]: 25%; Therapeutic Index MTD/Min Eff [2]: 2.3; Percent Tumor Growth Inhibition HT29 (Colon) (HT29 (Colon) xenograft; 100 mg/kg): 47% |
| N.N.[Cl][Pt][Cl] [Cisplatin, reference compound] | 30 | 4 | 10 | 31 | 1 | 149 | Percent Tumor Growth Inhibition HT29 (Colon) (HT29 (Colon) xenograft; 2 mg/kg): 69%; GI50 (HT29 cells [4]; HT29, 0 mM phloridzen, read-out: GI50 of Uptake in HT29 Cells, 0 mM Phoridzen): 261 µM; GI50 (HT29 cells [4]; HT29, 0.2 mM phloridzen, read-out: GI50 of Uptake in HT29 Cells, 0.2 mM Phoridzen): 194 µM; GI50 (HT29 cells [4]; HT29, 0.5 mM phloridzen, read-out: GI50 of Uptake in HT29 Cells, 0.5 mM Phoridzen): 192 µM; GI50 (HT29 cells [4]; HT29, 1.0 mM phloridzen, read-out: GI50 of Uptake in HT29 Cells, 1.0 mM Phoridzen): 254 µM |
| COC1OC(CNC(=O)CCCC2C(=O)[O][Pt]3([NH]C4CCCCC4[NH]3)[O]C2=O)C(O)C(O)C1O [(67), [1R, 2R-Cyclohexanediamine-N,N′][{3-(Methyl-α-D-Glucopyranos-6-ylamido)propyl}propanedioato(2-)-O,O′]Platinum (II)] | 234 | 185 | 21 |  | 5 | 68 |  |
| NC1CCCCC1N.O=C1[O][Pt][O]C(=O)C1CCC1OC(CO)C(O)C(O)C1O [(88), [1R,2R-Cyclohexanediamine-N,N′][{2-(α,β-D-Glucopyranos-1-yl)ethyl}propanedioato(2-)-O,O′]Platinum (II)] | 226 | 98 | 31 | 112 | 13 | 260 |  |
| COC1OC(C(=O)NCCC2C(=O)[O][Pt]3([NH]C4CCCCC4[NH]3)[O]C2=O)C(O)C(O)C1O [(78), [1R,2R-Cyclohexanediamine-N,N′][{2-(Methyl-β-D-Glucuron-6-yl-amido)ethyl}propanedioato(2-)-O,O′]Platinum (II)] | 103 | 76 | 15 |  |  |  |  |
| O=C(CCCC1C(=O)[O][Pt]2([NH]C3CCCCC3[NH]2)[O]C1=O)NC1OC(CO)C(O)C(O)C1O [(51), [1R,2R-Cyclohexanediamine-N,N′][{3-(β-D-Galactopyranos-1-ylamido)propyl}propanedioato(2-)-O,O′]Platinum (II)] | 374 | 286 | 37 | 84 | 5 | 255 |  |
| O=C(CCC1C(=O)[O][Pt]2([NH]C3CCCCC3[NH]2)[O]C1=O)NC1OC(CO)C(O)C(O)C1O [(42), [1R,2R-Cyclohexanediamine-N,N′][{2-(β-D-Galactopyranos-1-ylamido)ethyl}propanedioato(2-)-O,O′]Platinum (II)] | 860 | 188 | 22 | 45 | 4 | 131 |  |
| N.N.O=C(CCCC1C(=O)[O][Pt][O]C1=O)NC1C(O)OC(CO)C(O)C1O [(82), [Diammine][{3-(α,β-D-Glucopyranos-2-yl-amido)propyl}propanedioato(2-)-O,O′]Platinum (II)] | 800 | 112 | 142 | 133 | 11 | 300 |  |
| O=C1[O][Pt]2([NH]C3CCCCC3[NH]2)[O]C(=O)C1CCNC(=O)C1OC(O)C(O)C(O)C1O [(74), [1R,2R-Cyclohexanediamine-N,N′][{2-(α,β-D-Glucuron-6-yl-amido)ethyl}propanedioato(2-)-O,O′]Platinum (II)] |  | 53 | 53 |  |  |  |  |
| O=C(CCCC1C(=O)[O][Pt]2([NH]C3CCCCC3[NH]2)[O]C1=O)NCC1OC(O)C(O)C(O)C1O [(66), [1R,2R-Cyclohexanediamine-N,N′][{3-(α,β-D-Glucopyranos-6-ylamido)propyl}propanedioato(2-)-O,O′]Platinum (II)] | 222 | 102 | 15 |  | 7 | 163 |  |
| N.N.O=C(CCCC1C(=O)[O][Pt][O]C1=O)NCC1OC(O)C(O)C(O)C1O [(60), [Diammine][{3-(α,β-D-Galactopyranos-6-ylamido)propyl}propanedioato(2-)-O,O′]Platinum (II)] |  | 79 | 117 |  |  |  |  |
| O=C1[O][Pt]2([NH]C3CCCCC3[NH]2)[O]C(=O)C1CCNC(=O)C1OC(O)C(O)C(O)C1O [(77), [1R, 2R-Cyclohexanediamine-N,N′][{2-(α,β-D-Galacturon-6-yl-amido)ethyl}propanedioato(2-)-O,O′]Platinum (II)] |  | 38 | 38 |  |  |  |  |
| O=C(CCC1C(=O)[O][Pt]2([NH]C3CCCCC3[NH]2)[O]C1=O)NC1OC(CO)C(O)C(O)C1O [(45), [1R,2R-Cyclohexanediamine-N,N′][{2-(β-D-Mannopyranos-1-ylamido)ethyl}propanedioato(2-)-O,O′]Platinum (II)] |  | 84 | 28 |  |  |  |  |
